PMC8152971, “Valeriana rigida Ruiz & Pav. Root Extract: A New Source of Caffeoylquinic Acids with Antioxidant and Aldose Reductase Inhibitory Activities” (Foods, 2021)
Marks after values point to notes of the source that are not given here.

Experiments:
[1] = Partition coefficient (K upper/lower) in biphasic CCC solvent systems; type: physicochemical
Protocol: The solvent system was screened via HPLC and evaluated according to the partition coefficient (K value) of the target compounds on the principle introduced by Ito [32]. Briefly, four solvent systems comprising EtOAc, n-BuOH, […] solution to 29 mM, and then the corresponding K values of the target compounds under acidic (Kacid) or basic (Kbase) conditions were determined, as previously described: each acidified or basified solvent system was partitioned to upper layer and lower layer. Thereafter, the extract (about 1–2 mg) was prepared in a 1.5 mL tube and dissolved by adding equal volumes (each 500 µL) of the upper layer and lower layers, which were mixed by a vortex mixer and centrifuged for about 20 s using a C1301 Mini Centrifuge (Labnet International, South Korea). Next, the upper and lower phase sample solutions were respectively pipetted (each 200 µL) into a new 1.5 mL-tube and evaporated by nitrogen gas. Each sample residue was redissolved using 200 µL of MeOH and subjected to HPLC analysis with an injection volume of 20 µL. The K value was calculated as K = Aupper/Alower, where Aupper and Alower are the HPLC peak areas of the target component in the upper and lower phases, respectively.

[2] = Hypochlorous acid (HOCl) scavenging assay; settings: for IC50: linear regression
Protocol: The HOCl scavenging assay was adapted from a previous study using 1,8-diaminonaphthalene as a fluorescence probe for hypochlorite. […] Next, the fluorescence intensity (λex = 360 ± 20 nm, λem = 460 ± 20 nm) was immediately measured using a microplate fluorescence reader (FLx800; Bio-Tek, Winooski, VT, USA). Trolox (final concentration 25–100 µg/mL) was used as a reference antioxidant.

[3] = DPPH radical scavenging assay; settings: Trolox equivalent antioxidant capacity, mean ± SD, n ≥ 3
Protocol: The experiment was carried out as previously described. […] Thereafter, the absorbance was measured using a microplate reader (EL800, Bio-Tek Instruments, Winooski, VT, USA) at 570 nm.

[4] = Oxygen radical absorbance capacity (ORAC) assay; settings: Trolox equivalent antioxidant capacity, mean ± SD, n ≥ 3
Protocol: The oxygen radical absorbance capacity (ORAC) assay was performed as previously described. Briefly, 0. […] Next, 60 µL of AAPH (40 mM) was added to generate peroxyl radicals to initiate the reaction.

[5] = target: T1, rat lens AR homogenate (aldose reductase) (Rattus norvegicus, UniProt P07943); experiment: AR inhibition assay; type: biochemical, Sprague–Dawley rats; settings: for inhibition at 0.098 µM / inhibition at 0.195 µM / inhibition at 0.391 µM: read-out: AR inhibitory Activity Inhibition (%); for IC50: rat lens AR, read-out: AR inhibitory Activity IC50
T1 construct: the lenses were removed from the eyes, ground in a mortar; from tissue; host or cells: lens of Sprague–Dawley rats
Protocol: The eyes of 10-week Sprague–Dawley rats (250–280 g) were removed and frozen at −70 °C before use. Thereafter, the lenses were removed from the eyes, ground in a mortar (precooled at −70 °C), and extracted using 0.1 M PBS of pH 6.2 (around 0.5 mL of buffer per two frozen rat lenses).
The AR inhibitory activities of the extract and the separated compounds were determined as described previously. […] Next, the reaction was initiated by adding 20 µL of the substrate (DL-glyceraldehyde dimmer, 25 mM in 0.1 M PBS of pH 7.0), and the values were further measured for 6 min at 340 nm (OD340) using an Epoch microplate spectrophotometer (BioTek Instruments, Winooski, VT, USA). […] The DMSO used for sample preparation was less than 0.4% (v/v) in the reaction system.

[6] = ABTS radical scavenging assay; settings: Trolox equivalent antioxidant capacity, mean ± SD, n ≥ 3
Protocol: The experiment was conducted as previously described. In brief, 3.5 mM of potassium persulfate aqueous solution was used to prepare 0.2 mM of ABTS diammonium salt. The solution was diluted 10-fold using distilled water and allowed to produce ABTS radicals (ABTS^+) by keeping the solution in the dark for 14 h at room temperature. […] Equation (1) was used to calculate the ABTS^+ scavenging activity (%), where Acontrol is the absorbance of ABTS^+ solution free of samples, Asample is the absorbance of ABTS^+ solution incubated with a sample, Ablank1 is the absorbance of the test sample free of ABTS^+ solution, and Ablank2 is the absorbance of the diluted potassium persulfate solution.

[7] = EtOAc/H2O, 1:1, 208 mM formic acid
[8] = EtOAc/n-BuOH/H2O, 2:3:5, 30 mM ammonia
[9] = EtOAc/n-BuOH/H2O, 2:3:5, 208 mM formic acid
[10] = EtOAc/n-BuOH/H2O, 3:2:5, 30 mM ammonia
[11] = EtOAc/n-BuOH/H2O, 3:2:5, 208 mM formic acid
[12] = EtOAc/n-BuOH/H2O, 4:1:5, 30 mM ammonia
[13] = EtOAc/n-BuOH/H2O, 4:1:5, 208 mM formic acid

Row | SMILES | K(upper/lower) Value ([1]; EtOAc/H2O, 1:1, 30 mM ammonia) | K(upper/lower) Value [1, 7] | K(upper/lower) Value [1, 8] | K(upper/lower) Value [1, 9] | K(upper/lower) Value [1, 10] | K(upper/lower) Value [1, 11] | K(upper/lower) Value [1, 12] | K(upper/lower) Value [1, 13] | HOCl Scavenging Activity Inhibition (%) ([2]; 3.125 µM) | HOCl Scavenging Activity Inhibition (%) ([2]; 6.25 µM) | HOCl Scavenging Activity Inhibition (%) ([2]; 12.5 µM) | IC50 [2] [nM] | TE, DPPH [3] | TE, ORAC [4] | inhibition at 0.098 µM [5] [%] | inhibition at 0.195 µM [5] [%] | inhibition at 0.391 µM [5] [%] | IC50 [5] [nM] | TE, ABTS [6]
1 | O=C(/C=C/c1ccc(O)c(O)c1)O[C@H]1[C@H](O)C[C@](O)(C(=O)O)C[C@H]1OC(=O)/C=C/c1ccc(O)c(O)c1 [3,4-diCQA (4), 3,4-di-O-caffeoylquinic acid] | 0.02 | 3.49 | 0.04 | 20.24 | 0.03 | 16.14 | 0.02 | 4.86 | 46.68 ± 2.87 | 50.28 ± 0.19 | 59.15 ± 1.19 | 5780 | 1.09 ± 0.09 ^b µmol Trolox Equivalents Per µmol Compound | 3.26 ± 0.10 ^a µmol Trolox Equivalents Per µmol Compound | 18.9 ± 2.43 | 50.4 ± 3.34 | 68.67 ± 0.68 | 220 | 1.06 ± 0.06 ^c µmol Trolox Equivalents Per µmol Compound
2 | O=C(/C=C/c1ccc(O)c(O)c1)O[C@@H]1[C@H](O)C[C@@](O)(C(=O)O)C[C@H]1OC(=O)/C=C/c1ccc(O)c(O)c1 [4,5-diCQA (6), 4,5-di-O-caffeoylquinic acid] | 0.01 | 12.24 | 0.13 | 45.95 | 0.05 | 41.13 | 0.01 | 22.17 | 48.80 ± 5.62 | 51.23 ± 2.14 | 65.80 ± 4.06 | 4610 | 1.23 ± 0.07 ^a µmol Trolox Equivalents Per µmol Compound | 3.70 ± 0.34 ^a µmol Trolox Equivalents Per µmol Compound | 23.7 ± 2.7 | 44.4 ± 4.45 | 65.9 ± 2.21 | 230 | 1.22 ± 0.03 ^b µmol Trolox Equivalents Per µmol Compound
